For assay [1], the system named is MRSA biofilms grown on catheters (strain ATCC BAA-42). Put plainly: Catheter biofilm eradication in vitro, methylene blue staining. To be noted: 1000×MIC, 24 hours.
For assay [2], the system named is biofilms of BAA-42 MRSA. Put plainly: Biofilm eradication in 24-well plates, crystal violet staining. The format is cell-based, S. aureus. To be noted: for change in biofilm, visually: 1000 ug/ml (1000×MIC), 4 hours or 6 hours; for biofilm clearance: 1000×MIC, 24 hours.
Assay [3] has as its system MRSA biofilms grown on catheters (strain ATCC BAA-42). Kind of assay: Catheter biofilm residual CFU, BacTiter-Glo luciferase estimate.
Assay [4] has as its system S. aureus strains. Kind of assay: PlySs2 and antibiotic MIC, broth microdilution, 80% growth inhibition (CLSI M07-A9). To be noted: for MIC90: Staphylococcus aureus. It is filed as cell-based.
Assay [5] concerns S. aureus biofilms. To be noted: cited from earlier work; for effect on the established S. aureus biofilms: high concentrations: oxacillin 400, vancomycin 800, clindamycin 800 (printed ag/ml, tag/ml), 24 h.
The test system of assay [6] is methicillin resistant S. aureus MRSA strain ATCC BAA-42. Kind of assay: MIC by broth microdilution (CLSI M07-A9) against strain ATCC BAA-42. The format is cell-based. As to conditions: ATCC BAA-42.
Assay [7] has as its system ATCC BAA-42 MRSA biofilms. Kind of assay: ClyS activity on biofilm in polystyrene plates, crystal violet staining. The format is cell-based, S. aureus. To be noted: 24 hours.

Values after ≈ are worked out from the molar mass of the structure shown. Like-named read-outs stand apart in the source and are kept apart here. Marks after values point to notes of the source that are not given here.

The values that follow come from patent US11524046B2, “Biofilm prevention, disruption and treatment with bacteriophage lysin” (priority 2012, dated 2022).

For `CCCCCCCCCC(=O)N[C@@H](Cc1c[nH]c2ccccc12)C(=O)N[C@H](CC(N)=O)C(=O)N[C@@H](CC(=O)O)C(=O)N[C@@H]1C(=O)NCC(=O)N[C@@H](CCCN)C(=O)N[C@@H](CC(=O)O)C(=O)N[C@H](C)C(=O)N[C@@H](CC(=O)O)C(=O)NCC(=O)N[C@H](CO)C(=O)N[C@@H]([C@H](C)CC(=O)O)C(=O)N[C@@H](CC(=O)c2ccccc2N)C(=O)O[C@@H]1C` [Daptomycin, daptomycin], the “biofilm clearance from the catheter” value in assay [1] is given as “did not remove significant biofilm”. Besides, in assay [2], the “change in biofilm, visually” value is “No change”. In addition, the biofilm clearance result in assay [2] is on record as “no biofilm clearance”. Further, the biofilm dissolution entry in assay [2] (concentrations up to 10×MIC, up to 24 hours) is recorded as “no dissolution”. In addition, the CFU reduction result in assay [3] (1×MIC, 24 hours) is listed as “no CFU reduction”; in assay [3] (1000×MIC, 24 hours), “two log reduction”. In assay [3] (1000× MIC, 24 hours, from 100 million), the “CFUs remaining in catheter biofilm” value is recorded as 1 million. Also, in assay [3] (up to concentrations of 5000×MIC), the “removal of biofilm bacteria” value is recorded as “completely ineffective”. Moreover, the MIC90 was found to be 9.9 µM (≈ 16 µg/mL) in assay [4] (DRSA (n = 8), read-out: MIC90); 0.6 µM (≈ 0.972 µg/mL) in assay [4] (LRSA (n = 5), read-out: MIC90); 0.6 µM (≈ 0.972 µg/mL) in assay [4] (MRSA, MRSA (n = 45), read-out: MIC90); 0.6 µM (≈ 0.972 µg/mL) in assay [4] (MSSA, MSSA (n-28), read-out: MIC90); 4.9 µM (≈ 7.94 µg/mL) in assay [4] (VISA, VISA (n = 10), read-out: MIC90); 0.6 µM (≈ 0.972 µg/mL) in assay [4] (VRSA, VRSA (n = 14), read-out: MIC90).

Take `CC(=O)NC[C@H]1CN(c2ccc(N3CCOCC3)c(F)c2)C(=O)O1` [Linezolid, linezolid]: the “change in biofilm, visually” value in assay [2] was “No change”. Besides, the biofilm clearance result in assay [2] is on record as “no biofilm clearance”. The MIC50/90 is recorded as 2 in assay [4] (DRSA (n = 8)); more than 64 in assay [4] (LRSA (n = 5)); 2 in assay [4] (MRSA (n = 45)); 2 in assay [4] (MSSA (n-28)); 2 in assay [4] (VISA (n = 10)); 2 in assay [4] (VRSA (n = 14)). Also, the “MIC50/90 [uM]” value in assay [4] (DRSA (n = 8)) is 5.7 µM (≈ 1.92 µg/mL); in assay [4] (LRSA (n = 5)), more than 183 µM; in assay [4] (MRSA (n = 45)), 5.7 µM (≈ 1.92 µg/mL); in assay [4] (MSSA (n-28)), 5.7 µM (≈ 1.92 µg/mL); in assay [4] (VISA (n = 10)), 5.7 µM (≈ 1.92 µg/mL); in assay [4] (VRSA (n = 14)) it was 5.7 µM (≈ 1.92 µg/mL).

As to `Cc1onc(-c2ccccc2)c1C(=O)N[C@@H]1C(=O)N2[C@@H]1SC(C)(C)[C@@H]2C(=O)O` [Oxacillin, oxacillin], the “effect on the established S. aureus biofilms” value in assay [5] is on record as “no effect”. In assay [4] (MRSA (n = 45)), the MIC50/90 is listed as >4* and the “MIC50/90 [uM]” value is more than 10.0 µM.

For `CN[C@H](CC(C)C)C(=O)N[C@H]1C(=O)N[C@@H](CC(N)=O)C(=O)N[C@H]2C(=O)N[C@H]3C(=O)N[C@H](C(=O)N[C@H](C(=O)O)c4cc(O)cc(O)c4-c4cc3ccc4O)[C@H](O)c3ccc(c(Cl)c3)Oc3cc2cc(c3O[C@@H]2O[C@H](CO)[C@@H](O)[C@H](O)[C@H]2O[C@H]2C[C@](C)(N)[C@H](O)[C@H](C)O2)Oc2ccc(cc2Cl)[C@H]1O` [Vancomycin, vancomycin], in assay [5], the “effect on the established S. aureus biofilms” value is given as “no effect”. The “change in biofilm, visually” value in assay [2] is reported as “No change”. Besides, the biofilm clearance result in assay [2] is reported as “no biofilm clearance”. Further, the MIC90 in assay [4] was 0.7 µM (≈ 1.01 µg/mL); in assay [4] (MRSA) it was 0.7 µM (≈ 1.01 µg/mL); in assay [4] (MSSA), 0.7 µM (≈ 1.01 µg/mL); in assay [4] (VISA), 2.7 µM (≈ 3.91 µg/mL); in assay [4] (VRSA), more than 10.6 µM.

As to “Lysostaphin: gene product of Staphylococcus simulans degrading the polyglycine crosslinks of the S. aureus cell wall”, the “effect on S. aureus biofilms in vitro on plastic and glass surfaces” value in assay [5] (lysostaphin-sensitive S. aureus) is recorded as “disrupted the extracellular matrix”.

B1: ClyS: chimeric lysin with activity against Staphylococci, detailed in WO 2010/002959; SEQ ID NO: 5 (protein, listed as Staphylococcus aureus)
chain: METLKQAESYIKSKVNTGTDFDGLYGYQCMDLAVDYIYHVTDGKIRMWGNAKDAINNSFGGTATVYKNYPAFRPKYGDVVVWTTGNFATYGHIAIVTNPDPYGDLQYVTVLEQNWNGNGIYKTELATIRTHDYTGITHFIRPNFATESSVKKKDTKKKPKPSNRDGLNKDKIVYDRTNINYNMVLQGKSASKITVGSKAPYNLKWSKGAYFNAKIDGLGATSATRYGDNRTNYRFDVGQAVYAPGTLIYVFEIIDGWCRIYWNNHNEWIWHERLIVKEVF
For B1, the “MIC of the ClyS lysin” value in assay [6] is 32 µg/mL. In addition, the biofilm dispersal entry is listed as “somewhat” in assay [7] (0.032 μg/ml), “Reduction in stained biofilm” in assay [7] (0.32 μg/ml), “effectively disperses” in assay [7] (3.2 μg/ml (0.1× MIC)) and “effectively disperses” in assay [7] (32 μg/ml (1×MIC)).
